Measurements: patent publication US20120178738A1, “DIBENZO [B,F] [1,4]OXAZAPINE COMPOUNDS” (ARYX THERAPEUTICS, INC., priority 2007, published 2012)
Where two headings read alike, the source gives them in different places.

Key:
[1] = biological target: T1, 5-HT2A receptor (Rattus norvegicus, UniProt P14842); test: cell-based
T1 construct: Eight strips of tissue (0.5 cm long) were cut. and were mounted in 10 ml organ baths; tissue Charles River Laboratories; host or cells: rat aorta strips, endothelium removed
T1 sequence (P14842 whole entry): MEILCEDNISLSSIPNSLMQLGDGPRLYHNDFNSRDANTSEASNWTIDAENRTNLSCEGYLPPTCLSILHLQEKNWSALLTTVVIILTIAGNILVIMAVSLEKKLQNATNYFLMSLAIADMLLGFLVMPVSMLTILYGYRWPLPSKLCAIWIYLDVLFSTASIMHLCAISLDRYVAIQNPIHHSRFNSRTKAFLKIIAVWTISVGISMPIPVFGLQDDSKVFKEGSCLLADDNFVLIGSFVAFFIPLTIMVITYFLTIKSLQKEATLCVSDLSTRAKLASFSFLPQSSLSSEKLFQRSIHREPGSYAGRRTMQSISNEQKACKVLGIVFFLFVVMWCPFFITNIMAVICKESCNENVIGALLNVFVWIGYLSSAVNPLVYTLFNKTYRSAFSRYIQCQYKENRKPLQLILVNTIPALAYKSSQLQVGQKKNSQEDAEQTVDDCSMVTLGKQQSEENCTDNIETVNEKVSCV
In short: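 Endothelium-denuded aortic strips from male Sprague Dawley rats held at 37° C in carbogen-aerated Krebs, pH 7.4, under 2 g resting tension. Contraction recorded as tension change, expressed as % of maximal 5-HT response; agonist EC50 from Parker–Waud fit, antagonist pKB/pA2 from concentration-ratios.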

[2] = biological target: T2, human D2s dopamine receptors (Homo sapiens, UniProt P14416); test: hD2S receptor radioligand binding ([3H]spiperone); settings: pKi reported on a scale of 1 through 5
T2 construct: expressed in transfected cells; host or cells: Chinese hamster ovary cells (membranes)
T2 sequence (P14416 1-414 isoform P14416-2): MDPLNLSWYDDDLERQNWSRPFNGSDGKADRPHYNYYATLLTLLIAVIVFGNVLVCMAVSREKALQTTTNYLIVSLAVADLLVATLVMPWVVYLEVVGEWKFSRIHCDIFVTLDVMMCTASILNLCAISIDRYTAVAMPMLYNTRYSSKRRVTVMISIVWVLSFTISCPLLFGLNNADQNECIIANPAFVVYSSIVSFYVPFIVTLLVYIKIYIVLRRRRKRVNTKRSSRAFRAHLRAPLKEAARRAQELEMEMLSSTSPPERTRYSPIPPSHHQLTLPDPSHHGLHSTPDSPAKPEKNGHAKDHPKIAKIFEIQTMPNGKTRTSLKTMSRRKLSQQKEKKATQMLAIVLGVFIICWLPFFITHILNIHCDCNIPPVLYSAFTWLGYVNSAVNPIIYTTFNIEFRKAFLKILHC
In short: (§1)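 Competition binding on receptor-bearing membranes or cells: one fixed radioligand concentration at equilibrium, with a range of unlabelled test compound concentrations. Bound and free radioligand separated by filtration. Nonspecific binding defined with a known blocker, and displacement curves corrected for it.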

[3] = biological target: T3, human D2L dopamine receptors (Homo sapiens, UniProt P14416); test: hD2L receptor radioligand binding ([3H]spiperone)
T3 construct: expressed in transfected cells; host or cells: insect Sf9 cells (membranes)
T3 sequence (P14416 whole entry): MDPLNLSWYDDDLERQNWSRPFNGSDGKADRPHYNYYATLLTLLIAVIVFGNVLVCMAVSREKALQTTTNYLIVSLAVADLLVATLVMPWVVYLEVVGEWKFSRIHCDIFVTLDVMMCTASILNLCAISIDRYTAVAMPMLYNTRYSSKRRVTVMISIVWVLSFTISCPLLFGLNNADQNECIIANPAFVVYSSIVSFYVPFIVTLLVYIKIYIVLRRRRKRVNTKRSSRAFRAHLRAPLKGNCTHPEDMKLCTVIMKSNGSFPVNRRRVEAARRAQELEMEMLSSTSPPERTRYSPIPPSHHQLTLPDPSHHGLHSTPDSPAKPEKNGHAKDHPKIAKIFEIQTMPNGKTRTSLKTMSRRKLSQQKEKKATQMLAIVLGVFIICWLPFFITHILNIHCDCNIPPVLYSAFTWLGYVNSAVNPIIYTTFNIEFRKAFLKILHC
Protocol: (§2) Consistent with standard competition radioligand binding assays, the methodology was based on displacement of radioligand from tissues (or cell lines) bearing the receptor of interest (Cheng, Y. and Prusoff, W. H. (1973). Biochem. Pharmacol. 22, 3099-3108). The measurements were based on the binding of a single concentration of radiolabeled ligand in the presence of various concentrations of unlabeled ligand.
(§3) Tissues (or cellular plasma membrane fractions) were incubated in the presence of radioligand at equilibrium and in the presence of a range of concentrations of the test compounds (which were non-radiolabeled), and the displaced radioligand was separated from the membranes by filtration. Nonspecific binding was assessed by measuring displacement of the radioligand in the presence of a compound known to block binding of the radioligand to the receptor. Finally, the concentration-response relationship for radioligand displacement (corrected for non-specific binding) was used to assess binding of the test compound to the receptor.

[4] = biological target: T4, human 5HT1A receptors (Homo sapiens, UniProt P08908); test: h5-HT1A receptor radioligand binding ([3H]8OH-DPAT); settings: pKi reported on a scale of 1 through 5
T4 construct: expressed in transfected cells; host or cells: Chinese hamster ovary cells (membranes)
T4 sequence (P08908 1-422): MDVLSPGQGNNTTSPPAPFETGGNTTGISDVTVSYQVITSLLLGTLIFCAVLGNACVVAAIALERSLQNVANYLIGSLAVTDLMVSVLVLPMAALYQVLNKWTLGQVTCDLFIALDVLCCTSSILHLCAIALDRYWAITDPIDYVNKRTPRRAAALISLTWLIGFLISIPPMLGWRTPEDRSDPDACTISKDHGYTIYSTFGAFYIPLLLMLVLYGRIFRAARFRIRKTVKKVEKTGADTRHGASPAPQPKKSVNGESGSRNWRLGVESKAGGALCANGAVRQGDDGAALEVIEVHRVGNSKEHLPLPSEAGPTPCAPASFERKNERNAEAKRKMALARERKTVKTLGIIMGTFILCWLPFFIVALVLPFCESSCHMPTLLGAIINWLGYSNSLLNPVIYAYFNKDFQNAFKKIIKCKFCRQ
In short: as §1

[5] = biological target: T5, human 5HT2C receptors (Homo sapiens, UniProt P28335); test: h5-HT2C receptor radioligand binding ([3H]Mesulergine); settings: pKi reported on a scale of 1 through 5
T5 construct: expressed in transfected cells; host or cells: human embryo kidney cells (membranes)
T5 sequence (P28335 33-458): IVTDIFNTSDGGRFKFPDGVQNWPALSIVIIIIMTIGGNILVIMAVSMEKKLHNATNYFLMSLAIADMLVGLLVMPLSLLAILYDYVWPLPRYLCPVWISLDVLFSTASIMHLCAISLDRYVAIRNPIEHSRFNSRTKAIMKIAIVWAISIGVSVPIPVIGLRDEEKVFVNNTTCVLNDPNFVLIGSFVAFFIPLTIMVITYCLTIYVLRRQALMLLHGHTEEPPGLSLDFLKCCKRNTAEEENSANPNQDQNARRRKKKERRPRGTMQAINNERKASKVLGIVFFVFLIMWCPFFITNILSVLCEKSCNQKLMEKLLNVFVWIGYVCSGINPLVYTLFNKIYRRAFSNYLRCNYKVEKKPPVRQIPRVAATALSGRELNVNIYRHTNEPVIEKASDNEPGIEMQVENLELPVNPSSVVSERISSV
In short: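 Competition binding: membranes incubated to equilibrium with a single concentration of [3H]mesulergine and a range of unlabeled test compound concentrations, then filtered. Nonspecific binding defined with a known receptor blocker; displacement concentration-response, corrected for nonspecific binding, gave the affinity measure.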

[6] = biological target: T6, human M3 receptors (Homo sapiens, UniProt P20309); test: hM3 receptor radioligand binding ([3H]NMS)
T6 construct: expressed in transfected cells; host or cells: Chinese hamster ovary cells (membranes)
T6 sequence (P20309 whole entry): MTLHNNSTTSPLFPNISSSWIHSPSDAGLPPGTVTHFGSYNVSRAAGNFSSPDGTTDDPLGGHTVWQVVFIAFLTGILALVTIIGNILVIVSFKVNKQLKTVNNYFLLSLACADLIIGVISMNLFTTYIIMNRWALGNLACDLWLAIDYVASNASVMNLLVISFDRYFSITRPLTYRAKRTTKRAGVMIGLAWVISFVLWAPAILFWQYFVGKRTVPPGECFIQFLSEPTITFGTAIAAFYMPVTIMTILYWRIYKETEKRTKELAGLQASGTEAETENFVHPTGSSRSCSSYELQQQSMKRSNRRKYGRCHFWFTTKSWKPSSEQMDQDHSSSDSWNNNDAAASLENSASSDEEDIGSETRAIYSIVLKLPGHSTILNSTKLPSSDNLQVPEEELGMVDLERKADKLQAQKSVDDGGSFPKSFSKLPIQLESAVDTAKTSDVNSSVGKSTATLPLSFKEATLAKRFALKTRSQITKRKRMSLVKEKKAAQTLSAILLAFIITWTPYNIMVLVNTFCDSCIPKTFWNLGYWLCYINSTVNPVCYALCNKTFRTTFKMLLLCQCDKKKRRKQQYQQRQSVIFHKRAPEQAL
Protocol: as §2, §3

[7] = biological target: T7, human H1 receptors (Homo sapiens, UniProt P35367); test: hH1 receptor radioligand binding ([3H]Pyrilamine); settings: pKi reported on a scale of 1 through 5
T7 construct: expressed in transfected cells; host or cells: Chinese hamster ovary cells (membranes)
T7 sequence (P35367 whole entry): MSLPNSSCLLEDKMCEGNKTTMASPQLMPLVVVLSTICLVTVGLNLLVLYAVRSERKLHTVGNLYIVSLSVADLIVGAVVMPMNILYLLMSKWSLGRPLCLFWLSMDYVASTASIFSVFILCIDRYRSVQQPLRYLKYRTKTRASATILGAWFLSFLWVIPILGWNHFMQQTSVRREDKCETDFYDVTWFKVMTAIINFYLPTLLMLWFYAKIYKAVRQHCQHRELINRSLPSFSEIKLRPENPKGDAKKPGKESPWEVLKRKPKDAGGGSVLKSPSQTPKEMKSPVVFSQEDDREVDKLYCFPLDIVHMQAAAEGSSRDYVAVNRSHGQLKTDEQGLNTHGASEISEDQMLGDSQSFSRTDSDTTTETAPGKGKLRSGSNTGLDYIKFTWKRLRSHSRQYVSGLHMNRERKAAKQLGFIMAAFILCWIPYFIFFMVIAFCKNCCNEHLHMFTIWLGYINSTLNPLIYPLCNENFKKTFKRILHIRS
In short: as §1

[8] = biological target: T8, human 5HT7 receptors (Homo sapiens, UniProt P34969); test: h5-HT7 receptor radioligand binding ([3H]5-CT)
T8 construct: expressed in transfected cells; host or cells: Chinese hamster ovary cells (membranes)
T8 sequence (P34969 whole entry): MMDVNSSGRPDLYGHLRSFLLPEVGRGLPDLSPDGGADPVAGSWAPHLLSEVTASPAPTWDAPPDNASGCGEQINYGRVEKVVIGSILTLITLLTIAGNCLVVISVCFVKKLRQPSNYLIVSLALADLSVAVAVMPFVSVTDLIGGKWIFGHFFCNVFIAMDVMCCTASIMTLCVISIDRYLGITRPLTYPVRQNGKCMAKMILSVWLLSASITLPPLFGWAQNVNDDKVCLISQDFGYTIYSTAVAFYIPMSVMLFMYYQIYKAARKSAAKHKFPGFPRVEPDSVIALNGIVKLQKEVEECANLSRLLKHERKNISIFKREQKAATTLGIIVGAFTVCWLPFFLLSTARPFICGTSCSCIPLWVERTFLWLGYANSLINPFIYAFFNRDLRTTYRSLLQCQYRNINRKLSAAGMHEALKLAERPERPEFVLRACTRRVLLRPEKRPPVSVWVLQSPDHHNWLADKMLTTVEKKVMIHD
Protocol: as §2, §3

[9] = biological target: T9, human M1 receptors (Homo sapiens, UniProt P11229); test: hM1 receptor radioligand binding ([3H]NMS); settings: pKi reported on a scale of 1 through 5
T9 construct: expressed in transfected cells; host or cells: Chinese hamster ovary cells (membranes)
T9 sequence (P11229 1-460): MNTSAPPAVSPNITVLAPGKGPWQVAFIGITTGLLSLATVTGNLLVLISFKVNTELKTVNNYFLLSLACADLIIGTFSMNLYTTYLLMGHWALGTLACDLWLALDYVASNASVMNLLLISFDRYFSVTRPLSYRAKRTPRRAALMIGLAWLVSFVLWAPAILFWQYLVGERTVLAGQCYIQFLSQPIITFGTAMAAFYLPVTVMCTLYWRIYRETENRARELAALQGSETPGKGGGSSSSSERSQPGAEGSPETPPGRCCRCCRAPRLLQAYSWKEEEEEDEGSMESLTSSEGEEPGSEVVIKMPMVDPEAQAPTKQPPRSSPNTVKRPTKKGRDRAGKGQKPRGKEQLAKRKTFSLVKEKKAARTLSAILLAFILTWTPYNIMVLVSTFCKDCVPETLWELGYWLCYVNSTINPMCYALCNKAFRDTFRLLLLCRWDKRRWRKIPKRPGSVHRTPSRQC
In short: as §1

[10] = read-out: 5HT2A (pKb) (converted)
[11] = pKi reported on a scale of 1 through 5, read-out: D2L (pKi) (converted)
[12] = pKi reported on a scale of 1 through 5, read-out: M3 (pKi) (converted)
[13] = pKi reported on a scale of 1 through 5, read-out: 5HT7 (pKi) (converted)

| SMILES | Kb [1] [nM] | Ki [2] [nM] | Ki [3] [nM] | Ki [4] [nM] | Ki [5] [nM] | Ki [6] [nM] | Ki [7] [nM] | Ki [8] [nM] | Ki [9] [nM] | Kb [1, 10] [nM] | Ki [3, 11] [nM] | Ki [6, 12] [nM] | Ki [8, 13] [nM] |
| --- | --- | --- | --- | --- | --- | --- | --- | --- | --- | --- | --- | --- | --- |
| O=C(C[C@H]1CN(C2=Nc3cc(Cl)ccc3Oc3ccccc32)CCN1)O[C@@H]1CN2CCC1CC2 [DU, (S)-quinuclidin-3-yl 2-((S)-4-((E)-8-chlorodibenzo[b,f][1,4]oxazepin-11-yl)piperazin-2-yl)acetate] | > 100 | 2510 to 9770 | 2510 to 9770 | 10 to 97.7 | 100 to 977 | > 10000 | 100 to 977 | 3980 to 9770 | 5010 to 9770 |  |  |  |  |
| COC(=O)C[C@H]1CN(C2=Nc3cc(Cl)ccc3Oc3ccccc32)CCN1C [DW, (S,E)-methyl 2-(4-(8-chlorodibenzo[b,f][1,4]oxazepin-11-yl)-1-methylpiperazin-2-yl)acetate] |  | > 10000 |  | 1000 to 9770 | 100 to 977 |  | 100 to 977 |  | ≤ 1230 | 31.6 to 97.7 | 2510 to 9770 | > 10000 | 3980 to 9770 |
| CN1CCN(C2=Nc3cc(Cl)ccc3Oc3ccccc32)C[C@@H]1CC(=O)OC1CCCC1 [DX, (S,E)-cyclopentyl 2-(4-(8-chlorodibenzo[b,f][1,4]oxazepin-11-yl)-1-methylpiperazin-2-yl)acetate] |  | 2510 to 9770 |  | 1000 to 9770 | 100 to 977 |  | 100 to 977 |  | 5010 to 9770 | 10 to 30.9 | 2510 to 9770 | > 10000 | > 10000 |
| CC(C)(CO)NC(=O)C[C@H]1CN(C2=Nc3cc(Cl)ccc3Oc3ccccc32)CCN1 [EY, (S,E)-2-(4-(8-chlorodibenzo[b,f][1,4]oxazepin-11-yl)piperazin-2-yl)-N-(1-hydroxy-2-methylpropan-2-yl)acetamide] |  | 631 to 2450 |  | 10 to 97.7 | 10 to 97.7 |  | 10 to 97.7 |  | > 10000 | 3.16 to 9.77 | 631 to 2450 | > 10000 | 631 to 1550 |
| CCCN(CCO)C(=O)C[C@H]1CN(C2=Nc3cc(Cl)ccc3Oc3ccccc32)CCN1 [EZ, (S,E)-2-(4-(8-chlorodibenzo[b,f][1,4]oxazepin-11-yl)piperazin-2-yl)-N-(2-hydroxyethyl)-N-propylacetamide] |  | 2510 to 9770 |  | ≤ 9.77 | 10 to 97.7 |  | 10 to 97.7 |  | > 10000 | 31.6 to 97.7 | 2510 to 9770 | > 10000 | 631 to 1550 |
| O=C(C[C@H]1CN(C2=Nc3cc(Cl)ccc3Oc3ccccc32)CCN1)NCCO [FA, (S,E)-2-(4-(8-chlorodibenzo[b,f][1,4]oxazepin-11-yl)piperazin-2-yl)-N-(2-hydroxyethyl)acetamide] |  | 631 to 2450 |  | 10 to 97.7 | 10 to 97.7 |  | 10 to 97.7 |  | > 10000 | 3.16 to 9.77 | 631 to 2450 | > 10000 | 631 to 1550 |
| C[C@@H](O)CNC(=O)C[C@H]1CN(C2=Nc3cc(Cl)ccc3Oc3ccccc32)CCN1 [FB, 2-((S)-4-((E)-8-chlorodibenzo[b,f][1,4]oxazepin-11-yl)piperazin-2-yl)-N-((R)-2-hydroxypropyl)acetamide] |  | 631 to 2450 |  | 10 to 97.7 | 10 to 97.7 |  | 10 to 97.7 |  | > 10000 | < 3.09 | 631 to 2450 | > 10000 | 631 to 1550 |
| COCCNC(=O)C[C@H]1CN(C2=Nc3cc(Cl)ccc3Oc3ccccc32)CCN1 [FC, (S,E)-2-(4-(8-chlorodibenzo[b,f][1,4]oxazepin-11-yl)piperazin-2-yl)-N-(2-methoxyethyl)acetamide] |  | 631 to 2450 |  | 10 to 97.7 | 10 to 97.7 |  | 10 to 97.7 |  | > 10000 | 3.16 to 9.77 | 631 to 2450 | > 10000 | 631 to 1550 |
| O=C(C[C@H]1CN(C2=Nc3cc(Cl)ccc3Oc3ccccc32)CCN1)NCCOCCO [FN, (S,E)-2-(4-(8-chlorodibenzo[b,f][1,4]oxazepin-11-yl)piperazin-2-yl)-N-(2-(2-hydroxyethoxy)ethyl)acetamide] |  | 631 to 2450 |  | 10 to 97.7 | 10 to 97.7 |  | 10 to 97.7 |  | > 10000 | 3.16 to 9.77 | 631 to 2450 | > 10000 | 631 to 1550 |
| CN(CCO)C(=O)C[C@H]1CN(C2=Nc3cc(Cl)ccc3Oc3ccccc32)CCN1 [FO, (S,E)-2-(4-(8-chlorodibenzo[b,f][1,4]oxazepin-11-yl)piperazin-2-yl)-N-(2-hydroxyethyl)-N-methylacetamide] |  | 2510 to 9770 |  | 100 to 977 | 10 to 97.7 |  | 10 to 97.7 |  | 2510 to 4900 | 10 to 30.9 | 2510 to 9770 | > 10000 | 631 to 1550 |
